Laboratory results reported in US11292788B2, “IL-17 and IFN-gamma inhibition for the treatment of autoimmune diseases and chronic inflammation” (Immunic AG, priority 2017, dated 2022).

Experiments:
Assay type in all cases: cell-based
IL-17F = assay: Cytokine assay: IL-17F production by human PBMC stimulated with PHA; conditions: Homo sapiens, PBMC, IC50 class, read-out: IL-17F Inhib.
Protocol: (§1) Cytokine Assay: Analysis of Proliferation of and Cytokine Production by Human PBMC Stimulated with PHA
(§2) Peripheral blood mononuclear cells (PBMC) from healthy human donors were purified using Accuspin™ System-Histopaque-1077 (Sigma) according to the protocol recommended by the manufacturer. Purified PBMC were then washed twice with phosphate-buffered saline (PBS) and resuspended in RPMI1640 culture medium supplemented with 10% dialyzed heat inactivated fetal calf serum, 1.5 mM L-glutamine, 100 U penicillin/ml, and […] (all from PAN Biotech, Aidenbach, Germany). For stimulation, PBMC were seeded at 1×10^5 cells/well, activated with 2 μg/ml phytohaemagglutinin (PHA, Sigma) and incubated with the test compounds for 48 hours. IL-17A, IL-17F and INF-γ were then determined in the culture supernatant using a Luminex BioPlex system, following the manufacturer's instructions (BioRad, Munich, Germany). For screening, compounds were used at 10, 1, 0.1 and 0.01 μM. To determine the IC50, compounds were titrated semilogarithmically.
(§3) Cytokines were determined in the aforementioned culture supernatant using the following methods: IL-17A was measured using the human homodimer IL-17A ELISA Ready Set Go Kit from eBioscience (Frankfurt, Germany); IL-17F using the human IL-17F ELI-Pair from Hölzel DiagnosticaGmBH (Köln, Germany); and IFN-γ using the OptEIA human IFN-g ELISA from BD Bioscience (Heidelberg, Germany), all following the manufacturer's instructions.

INF-γ = assay: Cytokine assay: INF-γ production by human PBMC stimulated with PHA; conditions: Homo sapiens, PBMC, IC50 class, read-out: IFN-gamma Inhib.
Protocol: as §1, §2, §3

IL-17A = assay: Cytokine assay: IL-17A production by human PBMC stimulated with PHA; conditions: Homo sapiens, PBMC, IC50 class, read-out: IL-17A Inhib.
Protocol: as §1, §2, §3

| SMILES | IC50 (IL-17F) [nM] | IC50 (INF-γ) [nM] | IC50 (IL-17A) [nM] |
| --- | --- | --- | --- |
| COc1cccc(-c2noc(-c3cnn(C[C@@H](C)O)c3C(F)(F)F)c2-c2ccncn2)c1Cl [Example 119, (2R)-1-{4-[3-(2-chloro-3-methoxyphenyl)-4-(pyrimidin-4-yl)-1,2-oxazol-5-yl]-5-(trifluoromethyl)-1H-pyrazol-1-yl}propan-2-ol] | 500 to 5000 | 50 to 500 | 500 to 5000 |
| CN1CCN(CCOc2cccc(-c3noc(-c4cnn(CCC(C)(C)O)c4C(F)(F)F)c3-c3ncccn3)c2Cl)CC1 [Example 136, 4-[4-(3-{2-chloro-3-[2-(4-methylpiperazin-1-yl)ethoxy]phenyl}-4-(pyrimidin-2-yl)-1,2-oxazol-5-yl)-5-(trifluoromethyl)-1H-pyrazol-1-yl]-2-methylbutan-2-ol] | 50 to 500 | 50 to 500 | 50 to 500 |
| CC(C)(O)CCn1ncc(-c2onc(-c3cccc(OCCCN4CCCC4)c3Cl)c2-c2ncccn2)c1C(F)(F)F [Example 142, 4-[4-(3-{2-chloro-3-[3-(pyrrolidin-1-yl)propoxy]phenyl}-4-(pyrimidin-2-yl)-1,2-oxazol-5-yl)-5-(trifluoromethyl)-1H-pyrazol-1-yl]-2-methylbutan-2-ol] | 50 to 500 | 50 to 500 | 50 to 500 |
| COC(=O)c1c(-c2cccc(OCCN(C)C)c2Cl)noc1-c1cnn(C[C@H](C)O)c1C(F)(F)F [Example 149, methyl 3-{2-chloro-3-[2-(dimethylamino)ethoxy]phenyl}-5-{1-[(2S)-2-hydroxypropyl]-5-(trifluoromethyl)-1H-pyrazol-4-yl}-1,2-oxazole-4-carboxylate] | 500 to 5000 | 50 to 500 | 50 to 500 |
| C[C@@H](O)Cn1ncc(-c2onc(-c3cccc(C(=O)N4CCOCC4)c3Cl)c2-c2ccncn2)c1C(F)(F)F [Example 154, (R)-(2-chloro-3-(5-(1-(2-hydroxypropyl)-5-(trifluoromethyl)-1H-pyrazol-4-yl)-4-(pyrimidin-4-yl)isoxazol-3-yl)phenyl) (morpholino)methanone] | ≥ 5000 | 50 to 500 | 500 to 5000 |
| C[C@@H](O)Cn1ncc(-c2onc(-c3cccc(C(=O)NC4CCC4)c3Cl)c2-c2ccncn2)c1C(F)(F)F [Example 155, (R)-2-chloro-N-cyclobutyl-3-(5-(1-(2-hydroxypropyl)-5-(trifluoromethyl)-1H-pyrazol-4-yl)-4-(pyrimidin-4-yl)isoxazol-3-yl)benzamide] | 50 to 500 | 50 to 500 | 50 to 500 |
| CCNC(=O)c1cccc(-c2noc(-c3cnn(C[C@@H](C)O)c3C(F)(F)F)c2-c2ccncn2)c1Cl [Example 156, (R)-2-chloro-N-ethyl-3-(5-(1-(2-hydroxypropyl)-5-(trifluoromethyl)-1H-pyrazol-4-yl)-4-(pyrimidin-4-yl)isoxazol-3-yl)benzamide] | ≥ 5000 | 500 to 5000 | ≥ 5000 |
| CC(C)NC(=O)c1cccc(-c2noc(-c3cnn(C[C@@H](C)O)c3C(F)(F)F)c2-c2ccncn2)c1Cl [Example 157, (R)-2-chloro-3-(5-(1-(2-hydroxypropyl)-5-(trifluoromethyl)-1H-pyrazol-4-yl)-4-(pyrimidin-4-yl)isoxazol-3-yl)-N-isopropylbenzamide] | 500 to 5000 | 50 to 500 | 500 to 5000 |
| C[C@@H](O)Cn1ncc(-c2onc(-c3cccc(C(=O)N4CCC4)c3Cl)c2-c2ccncn2)c1C(F)(F)F [Example 158, (R)-(azetidin-1-yl)(2-chloro-3-(5-(1-(2-hydroxypropyl)-5-(trifluoromethyl)-1H-pyrazol-4-yl)-4-(pyrimidin-4-yl)isoxazol-3-yl)phenyl)methanone] | 50 to 500 | 50 to 500 | 50 to 500 |

The next lines start with the values.

| IC50 (IL-17F) [nM] | IC50 (INF-γ) [nM] | IC50 (IL-17A) [nM] | SMILES |
| --- | --- | --- | --- |
| ≥ 5000 | 500 to 5000 | ≥ 5000 | COc1ccccc1-c1noc(-c2cnn(CC(C)(C)O)c2C(F)(F)F)c1-c1ncccn1 [Example 114, 1-{4-[3-(2-methoxyphenyl)-4-(pyrimidin-2-yl)-1,2-oxazol-5-yl]-5-(trifluoromethyl)-1H-pyrazol-1-yl}-2-methylpropan-2-ol] |
| 500 to 5000 | 50 to 500 | 500 to 5000 | COc1ccccc1-c1noc(-c2cnn(C[C@@H](C)O)c2C(F)(F)F)c1-c1ccncn1 [Example 115, (2R)-1-{4-[3-(2-methoxyphenyl)-4-(pyrimidin-4-yl)-1,2-oxazol-5-yl]-5-(trifluoromethyl)-1H-pyrazol-1-yl}propan-2-ol] |
| ≥ 5000 | 500 to 5000 | ≥ 5000 | COc1ccccc1-c1noc(-c2cnn(CC(C)(C)O)c2C(F)(F)F)c1-c1ccncn1 [Example 116, 1-{4-[3-(2-methoxyphenyl)-4-(pyrimidin-4-yl)-1,2-oxazol-5-yl]-5-(trifluoromethyl)-1H-pyrazol-1-yl}-2-methylpropan-2-ol] |
| 500 to 5000 | 50 to 500 | 500 to 5000 | COc1cccc(-c2noc(-c3cnn(C[C@@H](C)O)c3C(F)(F)F)c2-c2ncccn2)c1Cl [Example 117, (2R)-1-{4-[3-(2-chloro-3-methoxyphenyl)-4-(pyrimidin-2-yl)-1,2-oxazol-5-yl]-5-(trifluoromethyl)-1H-pyrazol-1-yl}propan-2-ol] |
| ≥ 5000 | 500 to 5000 | 500 to 5000 | COc1cccc(-c2noc(-c3cnn(CC(C)(C)O)c3C(F)(F)F)c2-c2ccncn2)c1Cl [Example 120, 1-{4-[3-(2-chloro-3-methoxyphenyl)-4-(pyrimidin-4-yl)-1,2-oxazol-5-yl]-5-(trifluoromethyl)-1H-pyrazol-1-yl}-2-methylpropan-2-ol] |
| < 50 | < 50 | < 50 | CC(C)(O)CCn1ncc(-c2onc(-c3ccccc3Cl)c2-c2ncccn2)c1C(F)(F)F [Example 122, 4-{4-[3-(2-chlorophenyl)-4-(pyrimidin-2-yl)-1,2-oxazol-5-yl]-5-(trifluoromethyl)-1H-pyrazol-1-yl}-2-methylbutan-2-ol] |
| 50 to 500 | 500 to 5000 | 50 to 500 | CC(C)(O)CCn1ncc(-c2onc(-c3cccc(O)c3Cl)c2-c2ncccn2)c1C(F)(F)F [Example 129, 2-chloro-3-{5-[1-(3-hydroxy-3-methylbutyl)-5-(trifluoromethyl)-1H-pyrazol-4-yl]-4-(pyrimidin-2-yl)-1,2-oxazol-3-yl}phenol] |
| 50 to 500 | 50 to 500 | 50 to 500 | CN(C)CCCOc1cccc(-c2noc(-c3cnn(CCC(C)(C)O)c3C(F)(F)F)c2-c2ncccn2)c1Cl [Example 140, 4-[4-(3-{2-chloro-3-[3-(dimethylamino)propoxy]phenyl}-4-(pyrimidin-2-yl)-1,2-oxazol-5-yl)-5-(trifluoromethyl)-1H-pyrazol-1-yl]-2-methylbutan-2-ol] |
| < 50 | < 50 | < 50 | CCN(CC)CCCOc1cccc(-c2noc(-c3cnn(CCC(C)(C)O)c3C(F)(F)F)c2-c2ncccn2)c1Cl [Example 143, 4-[4-(3-{2-chloro-3-[3-(diethylamino)propoxy]phenyl}-4-(pyrimidin-2-yl)-1,2-oxazol-5-yl)-5-(trifluoromethyl)-1H-pyrazol-1-yl]-2-methylbutan-2-ol] |
